In ChEMBL document CHEMBL3991601, “The target landscape of clinical kinase drugs” (Science, 2017):
The source made the active and inactive calls. Rule as the data show it, for most assays here: actives have a measured Kd and inactives only a lower limit.

How the values were obtained:
[1] = target: Tyrosine-protein kinase ABL2 (Homo sapiens, UniProt P42684)
[2] = target: Actin-related protein 2 (Homo sapiens, UniProt P61160)
[3] = target: Cyclin-dependent kinase 7 (Homo sapiens, UniProt P50613)
[4] = target: Tyrosine-protein kinase Fer (Homo sapiens, UniProt P16591)
[5] = target: Fibroblast growth factor receptor 1 (Homo sapiens, UniProt P11362)
[6] = target: Glycogen synthase kinase-3 beta (Homo sapiens, UniProt P49841)
[7] = target: MAP/microtubule affinity-regulating kinase 3 (Homo sapiens, UniProt P27448)
[8] = target: S-adenosylmethionine synthase isoform type-2 (Homo sapiens, UniProt P31153)
[9] = target: T1, Membrane-associated tyrosine- and threonine-specific cdc2-inhibitory kinase (Homo sapiens, UniProt Q99640)
T1 sequence (Q99640 whole entry): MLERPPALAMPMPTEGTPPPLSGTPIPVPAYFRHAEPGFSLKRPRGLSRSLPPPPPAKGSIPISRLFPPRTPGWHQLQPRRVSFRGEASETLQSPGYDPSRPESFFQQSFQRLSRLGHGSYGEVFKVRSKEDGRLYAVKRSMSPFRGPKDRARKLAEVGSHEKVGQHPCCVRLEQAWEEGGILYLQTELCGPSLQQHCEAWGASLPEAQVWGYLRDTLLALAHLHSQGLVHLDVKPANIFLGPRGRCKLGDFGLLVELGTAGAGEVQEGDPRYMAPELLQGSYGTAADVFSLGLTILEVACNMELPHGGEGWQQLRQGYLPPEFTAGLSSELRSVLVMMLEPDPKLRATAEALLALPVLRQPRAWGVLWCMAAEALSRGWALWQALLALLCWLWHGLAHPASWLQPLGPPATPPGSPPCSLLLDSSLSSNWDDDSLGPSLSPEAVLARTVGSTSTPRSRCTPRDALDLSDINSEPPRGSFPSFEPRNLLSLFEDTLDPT

[10] = target: 26S proteasome regulatory subunit 6B (Homo sapiens, UniProt P43686)
[11] = target: Receptor-interacting serine/threonine-protein kinase 3 (Homo sapiens, UniProt Q9Y572)
[12] = target: T2, STE20-related kinase adapter protein alpha (Homo sapiens, UniProt Q7RTN6)
T2 sequence (Q7RTN6 whole entry): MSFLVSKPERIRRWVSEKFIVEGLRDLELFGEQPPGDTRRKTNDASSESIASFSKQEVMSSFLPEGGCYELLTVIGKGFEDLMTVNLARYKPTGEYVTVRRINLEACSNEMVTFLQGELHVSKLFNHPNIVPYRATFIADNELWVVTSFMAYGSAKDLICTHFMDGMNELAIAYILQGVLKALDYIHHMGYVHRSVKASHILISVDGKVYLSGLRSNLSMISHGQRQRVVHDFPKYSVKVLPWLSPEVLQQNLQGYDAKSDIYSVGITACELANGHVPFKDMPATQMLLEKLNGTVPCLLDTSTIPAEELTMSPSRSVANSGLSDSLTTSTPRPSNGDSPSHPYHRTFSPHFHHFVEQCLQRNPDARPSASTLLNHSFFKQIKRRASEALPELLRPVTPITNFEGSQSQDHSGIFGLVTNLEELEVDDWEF

[13] = target: T3, Serine/threonine-protein kinase TAO2 (Homo sapiens, UniProt Q9UL54)
T3 sequence (Q9UL54 whole entry): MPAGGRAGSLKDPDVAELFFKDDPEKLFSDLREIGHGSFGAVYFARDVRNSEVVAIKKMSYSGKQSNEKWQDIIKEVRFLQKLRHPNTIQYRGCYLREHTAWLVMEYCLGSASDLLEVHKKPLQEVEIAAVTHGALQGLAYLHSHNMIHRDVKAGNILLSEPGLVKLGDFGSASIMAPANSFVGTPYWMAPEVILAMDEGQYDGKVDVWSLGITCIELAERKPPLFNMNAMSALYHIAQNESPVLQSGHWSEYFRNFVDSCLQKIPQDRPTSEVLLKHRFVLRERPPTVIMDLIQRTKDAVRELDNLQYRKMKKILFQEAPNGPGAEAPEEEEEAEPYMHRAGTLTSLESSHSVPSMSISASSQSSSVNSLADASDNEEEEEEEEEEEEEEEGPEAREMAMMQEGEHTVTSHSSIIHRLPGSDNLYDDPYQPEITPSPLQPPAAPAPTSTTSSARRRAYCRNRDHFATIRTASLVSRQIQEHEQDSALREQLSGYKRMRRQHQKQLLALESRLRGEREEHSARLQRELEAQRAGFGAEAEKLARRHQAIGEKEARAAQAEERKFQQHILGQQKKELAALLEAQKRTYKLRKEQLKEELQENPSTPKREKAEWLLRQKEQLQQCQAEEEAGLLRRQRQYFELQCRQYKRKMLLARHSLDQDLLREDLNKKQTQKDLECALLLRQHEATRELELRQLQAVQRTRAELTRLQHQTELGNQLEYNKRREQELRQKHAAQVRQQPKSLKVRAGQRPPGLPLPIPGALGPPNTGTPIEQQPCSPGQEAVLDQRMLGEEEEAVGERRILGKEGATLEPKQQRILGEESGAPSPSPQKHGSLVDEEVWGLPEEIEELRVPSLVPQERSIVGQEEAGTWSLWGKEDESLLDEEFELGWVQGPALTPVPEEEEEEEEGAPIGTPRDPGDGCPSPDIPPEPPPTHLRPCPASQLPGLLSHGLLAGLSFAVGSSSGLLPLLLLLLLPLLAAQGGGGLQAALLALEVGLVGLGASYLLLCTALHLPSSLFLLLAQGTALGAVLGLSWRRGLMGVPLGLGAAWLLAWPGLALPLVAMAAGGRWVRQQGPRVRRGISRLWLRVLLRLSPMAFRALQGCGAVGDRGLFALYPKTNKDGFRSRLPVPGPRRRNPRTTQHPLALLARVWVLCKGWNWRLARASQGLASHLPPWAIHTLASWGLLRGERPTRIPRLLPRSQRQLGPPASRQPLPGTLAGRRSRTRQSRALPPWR

[14] = target: Mitogen-activated protein kinase kinase kinase 20 (Homo sapiens, UniProt Q9NYL2)
Also: in the data inactive means no Kd found up to 30 µM.

Sequence of Receptor-interacting serine/threonine-protein kinase 3 (Q9Y572 whole entry): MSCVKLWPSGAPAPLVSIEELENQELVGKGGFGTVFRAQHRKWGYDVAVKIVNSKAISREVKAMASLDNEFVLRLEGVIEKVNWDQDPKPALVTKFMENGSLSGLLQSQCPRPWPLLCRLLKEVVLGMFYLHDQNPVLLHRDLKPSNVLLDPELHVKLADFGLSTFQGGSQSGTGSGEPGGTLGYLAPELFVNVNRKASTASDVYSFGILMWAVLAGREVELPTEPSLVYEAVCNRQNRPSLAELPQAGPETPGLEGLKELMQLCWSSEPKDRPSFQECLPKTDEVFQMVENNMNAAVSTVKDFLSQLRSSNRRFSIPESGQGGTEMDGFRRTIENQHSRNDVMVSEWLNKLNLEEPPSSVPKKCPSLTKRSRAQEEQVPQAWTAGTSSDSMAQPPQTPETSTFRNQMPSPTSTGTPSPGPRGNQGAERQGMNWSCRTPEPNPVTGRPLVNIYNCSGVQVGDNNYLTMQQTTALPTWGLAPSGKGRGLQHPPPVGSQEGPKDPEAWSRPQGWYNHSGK
Sequence of Fibroblast growth factor receptor 1 (P11362 whole entry): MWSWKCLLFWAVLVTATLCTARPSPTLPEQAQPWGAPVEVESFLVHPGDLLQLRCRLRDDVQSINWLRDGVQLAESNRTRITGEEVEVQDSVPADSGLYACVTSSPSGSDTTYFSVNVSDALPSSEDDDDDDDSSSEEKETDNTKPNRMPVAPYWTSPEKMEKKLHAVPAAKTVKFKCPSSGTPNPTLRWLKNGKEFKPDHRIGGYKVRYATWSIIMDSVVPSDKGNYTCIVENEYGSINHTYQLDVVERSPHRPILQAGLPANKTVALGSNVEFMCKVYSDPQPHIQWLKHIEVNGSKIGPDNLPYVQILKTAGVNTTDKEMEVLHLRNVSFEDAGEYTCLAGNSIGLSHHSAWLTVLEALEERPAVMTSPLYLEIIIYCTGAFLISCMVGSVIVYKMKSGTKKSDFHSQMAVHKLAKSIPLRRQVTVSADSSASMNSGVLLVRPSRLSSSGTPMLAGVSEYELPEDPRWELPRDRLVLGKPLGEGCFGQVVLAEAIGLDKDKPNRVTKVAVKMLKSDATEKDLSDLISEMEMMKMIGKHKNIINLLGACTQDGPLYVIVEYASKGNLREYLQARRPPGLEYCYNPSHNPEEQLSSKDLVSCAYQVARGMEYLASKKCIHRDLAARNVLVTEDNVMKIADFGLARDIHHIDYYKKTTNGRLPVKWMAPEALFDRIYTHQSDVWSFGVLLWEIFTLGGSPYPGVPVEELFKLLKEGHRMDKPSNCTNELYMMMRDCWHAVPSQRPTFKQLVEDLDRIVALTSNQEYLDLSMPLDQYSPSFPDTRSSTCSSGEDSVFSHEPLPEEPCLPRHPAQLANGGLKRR
Sequence of Cyclin-dependent kinase 7 (P50613 whole entry): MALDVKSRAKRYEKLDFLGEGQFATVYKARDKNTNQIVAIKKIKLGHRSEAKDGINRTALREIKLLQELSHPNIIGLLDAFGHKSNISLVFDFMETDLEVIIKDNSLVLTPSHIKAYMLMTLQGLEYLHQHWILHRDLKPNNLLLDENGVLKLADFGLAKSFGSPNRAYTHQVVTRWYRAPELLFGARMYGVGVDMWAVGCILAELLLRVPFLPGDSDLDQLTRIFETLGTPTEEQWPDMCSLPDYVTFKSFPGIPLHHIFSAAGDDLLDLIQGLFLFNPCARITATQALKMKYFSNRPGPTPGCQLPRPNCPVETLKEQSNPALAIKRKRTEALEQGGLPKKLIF
Sequence of Tyrosine-protein kinase Fer (P16591 whole entry): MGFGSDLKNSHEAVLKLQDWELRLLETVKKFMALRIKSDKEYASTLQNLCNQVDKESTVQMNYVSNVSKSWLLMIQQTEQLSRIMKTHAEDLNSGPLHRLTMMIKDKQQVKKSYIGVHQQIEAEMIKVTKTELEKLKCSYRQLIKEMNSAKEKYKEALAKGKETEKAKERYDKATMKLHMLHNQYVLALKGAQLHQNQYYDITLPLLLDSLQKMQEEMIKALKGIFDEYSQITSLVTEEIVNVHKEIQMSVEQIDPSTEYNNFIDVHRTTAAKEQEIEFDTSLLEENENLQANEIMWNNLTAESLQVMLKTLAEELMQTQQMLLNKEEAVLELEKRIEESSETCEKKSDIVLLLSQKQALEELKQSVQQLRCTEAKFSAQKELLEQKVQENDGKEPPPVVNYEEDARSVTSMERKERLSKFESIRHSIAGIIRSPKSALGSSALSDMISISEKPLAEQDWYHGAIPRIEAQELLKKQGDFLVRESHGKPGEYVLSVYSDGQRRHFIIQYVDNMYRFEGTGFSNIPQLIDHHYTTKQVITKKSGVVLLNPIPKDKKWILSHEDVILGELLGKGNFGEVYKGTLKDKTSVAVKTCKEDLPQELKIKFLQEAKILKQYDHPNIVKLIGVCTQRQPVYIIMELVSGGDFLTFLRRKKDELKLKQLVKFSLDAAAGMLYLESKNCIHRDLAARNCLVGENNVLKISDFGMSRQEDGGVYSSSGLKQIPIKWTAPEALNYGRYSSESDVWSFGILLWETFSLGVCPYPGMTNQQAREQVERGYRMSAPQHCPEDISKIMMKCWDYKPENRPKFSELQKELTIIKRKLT
Sequence of MAP/microtubule affinity-regulating kinase 3 (P27448 whole entry, canonical isoform): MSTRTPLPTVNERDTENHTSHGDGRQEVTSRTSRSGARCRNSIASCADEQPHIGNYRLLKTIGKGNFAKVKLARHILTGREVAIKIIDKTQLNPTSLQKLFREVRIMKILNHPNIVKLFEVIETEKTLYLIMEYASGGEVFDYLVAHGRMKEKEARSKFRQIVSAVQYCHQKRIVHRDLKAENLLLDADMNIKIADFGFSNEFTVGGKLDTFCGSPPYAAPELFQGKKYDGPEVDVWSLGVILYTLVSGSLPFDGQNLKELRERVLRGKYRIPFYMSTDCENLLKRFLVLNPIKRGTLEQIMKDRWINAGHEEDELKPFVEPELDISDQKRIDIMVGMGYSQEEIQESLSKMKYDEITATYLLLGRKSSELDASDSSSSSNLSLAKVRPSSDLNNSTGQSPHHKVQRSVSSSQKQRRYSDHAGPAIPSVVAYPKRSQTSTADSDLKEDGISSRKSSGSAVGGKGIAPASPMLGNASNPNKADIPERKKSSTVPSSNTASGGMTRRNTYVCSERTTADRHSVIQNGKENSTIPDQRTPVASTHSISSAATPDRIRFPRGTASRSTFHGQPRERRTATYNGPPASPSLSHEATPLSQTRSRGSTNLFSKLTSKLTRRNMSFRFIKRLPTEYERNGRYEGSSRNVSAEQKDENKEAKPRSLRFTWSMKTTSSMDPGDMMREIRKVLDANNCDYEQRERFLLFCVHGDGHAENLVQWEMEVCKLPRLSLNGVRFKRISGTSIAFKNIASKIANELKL
Sequence of S-adenosylmethionine synthase isoform type-2 (P31153 whole entry, canonical isoform): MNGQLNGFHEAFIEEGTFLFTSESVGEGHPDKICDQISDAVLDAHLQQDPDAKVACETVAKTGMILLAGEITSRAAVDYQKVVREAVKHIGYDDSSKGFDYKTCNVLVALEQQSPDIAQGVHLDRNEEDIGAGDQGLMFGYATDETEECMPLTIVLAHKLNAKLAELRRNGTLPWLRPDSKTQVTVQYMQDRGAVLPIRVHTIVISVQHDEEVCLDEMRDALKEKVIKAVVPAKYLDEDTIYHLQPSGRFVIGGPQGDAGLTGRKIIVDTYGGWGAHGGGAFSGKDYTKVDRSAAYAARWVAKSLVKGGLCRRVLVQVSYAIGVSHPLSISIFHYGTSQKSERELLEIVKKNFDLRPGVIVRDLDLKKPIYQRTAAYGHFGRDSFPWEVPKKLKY
Sequence of 26S proteasome regulatory subunit 6B (P43686 whole entry): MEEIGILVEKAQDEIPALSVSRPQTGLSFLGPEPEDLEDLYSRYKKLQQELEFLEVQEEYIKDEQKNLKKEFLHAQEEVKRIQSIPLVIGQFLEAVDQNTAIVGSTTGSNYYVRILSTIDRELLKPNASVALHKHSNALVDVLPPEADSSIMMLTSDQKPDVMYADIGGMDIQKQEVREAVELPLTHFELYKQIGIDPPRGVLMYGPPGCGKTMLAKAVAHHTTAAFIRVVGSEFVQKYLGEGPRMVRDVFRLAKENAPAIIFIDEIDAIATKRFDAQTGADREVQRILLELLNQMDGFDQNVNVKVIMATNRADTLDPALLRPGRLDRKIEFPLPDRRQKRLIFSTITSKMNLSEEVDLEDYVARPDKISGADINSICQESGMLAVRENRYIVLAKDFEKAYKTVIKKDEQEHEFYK
Sequence of Glycogen synthase kinase-3 beta (P49841 whole entry): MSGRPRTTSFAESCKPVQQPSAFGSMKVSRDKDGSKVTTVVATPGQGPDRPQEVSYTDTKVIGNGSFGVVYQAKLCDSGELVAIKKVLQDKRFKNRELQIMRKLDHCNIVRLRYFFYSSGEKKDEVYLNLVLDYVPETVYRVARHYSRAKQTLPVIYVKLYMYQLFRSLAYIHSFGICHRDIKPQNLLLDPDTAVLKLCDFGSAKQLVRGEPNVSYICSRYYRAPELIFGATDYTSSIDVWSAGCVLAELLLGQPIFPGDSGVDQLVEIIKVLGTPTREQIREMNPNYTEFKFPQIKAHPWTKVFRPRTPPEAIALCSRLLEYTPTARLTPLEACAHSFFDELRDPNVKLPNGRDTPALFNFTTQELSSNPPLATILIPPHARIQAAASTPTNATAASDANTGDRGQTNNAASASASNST

SMILES	Kd [1]	Kd [2]	Kd [3]	Kd [4]	Kd [5]	Kd [6]	Kd [7]	Kd [8]	Kd [9]	Kd [10]	Kd [11]	Kd [12]	Kd [13]	Kd [14]
COc1cc(OC)c(/C=C/S(=O)(=O)Cc2ccc(OC)c(NCC(=O)O)c2)c(OC)c1 [RIGOSERTIB]	> 30 µM (inactive)	> 30 µM (inactive)	> 30 µM (inactive)	> 30 µM (inactive)	> 30 µM (inactive)	> 30 µM (inactive)	> 30 µM (inactive)	> 30 µM (inactive)	> 30 µM (inactive)	> 30 µM (inactive)	> 30 µM (inactive)	> 30 µM (inactive)	> 30 µM (inactive)	> 30 µM (inactive)
C[C@@H](c1ccc2nccn2c1)n1nnc2ncc(-c3cnn(C)c3)nc21 [SAVOLITINIB]	> 30 µM (inactive)	> 30 µM (inactive)	> 30 µM (inactive)	> 30 µM (inactive)	> 30 µM (inactive)	> 30 µM (inactive)	> 30 µM (inactive)	> 30 µM (inactive)	> 30 µM (inactive)	> 30 µM (inactive)	> 30 µM (inactive)	> 30 µM (inactive)	> 30 µM (inactive)	> 30 µM (inactive)
CC[C@@H]1C(=O)N(C)c2cnc(Nc3ccc(C(=O)N[C@H]4CC[C@H](N5CCN(CC6CC6)CC5)CC4)cc3OC)nc2N1C(C)C [VOLASERTIB]	> 30 µM (inactive)	> 30 µM (inactive)	> 30 µM (inactive)	> 30 µM (inactive)	> 30 µM (inactive)	> 30 µM (inactive)	> 30 µM (inactive)	> 30 µM (inactive)	> 30 µM (inactive)	> 30 µM (inactive)	> 30 µM (inactive)	> 30 µM (inactive)	> 30 µM (inactive)	> 30 µM (inactive)
CN1CCC(COc2cnc(-c3cccc(Cn4nc(-c5cccc(C#N)c5)ccc4=O)c3)nc2)CC1 [TEPOTINIB]	> 30 µM (inactive)	> 30 µM (inactive)	> 30 µM (inactive)	> 30 µM (inactive)	> 30 µM (inactive)	> 30 µM (inactive)	> 30 µM (inactive)	> 30 µM (inactive)	> 30 µM (inactive)	> 30 µM (inactive)	> 30 µM (inactive)	> 30 µM (inactive)	> 30 µM (inactive)	> 30 µM (inactive)
Cc1cc2c(F)c(Oc3ncnn4cc(OC[C@@H](C)OC(=O)[C@H](C)N)c(C)c34)ccc2[nH]1 [BRIVANIB ALANINATE]	> 30 µM (inactive)	> 30 µM (inactive)	> 30 µM (inactive)	> 30 µM (inactive)	3.9 µM (active)	> 30 µM (inactive)	> 30 µM (inactive)	> 30 µM (inactive)	> 30 µM (inactive)	> 30 µM (inactive)	> 30 µM (inactive)	> 30 µM (inactive)	> 30 µM (inactive)	> 30 µM (inactive)
Cc1cc([C@@H](C)Nc2ccccc2C(=O)O)c2nc(N3CCOCC3)cc(=O)n2c1 [AZD-6482]	> 30 µM (inactive)	> 30 µM (inactive)	> 30 µM (inactive)	> 30 µM (inactive)	> 30 µM (inactive)	> 30 µM (inactive)	> 30 µM (inactive)	> 30 µM (inactive)	> 30 µM (inactive)	> 30 µM (inactive)	> 30 µM (inactive)	> 30 µM (inactive)	> 30 µM (inactive)	> 30 µM (inactive)
COC(=O)[C@@]1(O)C[C@H]2O[C@]1(C)n1c3ccccc3c3c4c(c5c6ccccc6n2c5c31)C(=O)NC4 [K-252A]	> 30 µM (inactive)	> 30 µM (inactive)	> 30 µM (inactive)	0.455 µM (active)	> 30 µM (inactive)	> 30 µM (inactive)	0.384 µM (active)	> 30 µM (inactive)	> 30 µM (inactive)	> 30 µM (inactive)	> 30 µM (inactive)	> 30 µM (inactive)	> 30 µM (inactive)	> 30 µM (inactive)
CCS(=O)(=O)N1CC(CC#N)(n2cc(-c3ncnc4[nH]ccc34)cn2)C1 [BARICITINIB]	> 30 µM (inactive)	> 30 µM (inactive)	> 30 µM (inactive)	> 30 µM (inactive)	> 30 µM (inactive)	> 30 µM (inactive)	0.104 µM (active)	> 30 µM (inactive)	> 30 µM (inactive)	> 30 µM (inactive)	> 30 µM (inactive)	> 30 µM (inactive)	> 30 µM (inactive)	> 30 µM (inactive)
Cc1cc(-c2cc(O)ccc2Cl)cc2nnc(Nc3ccc(OCCN4CCCC4)cc3)nc12	0.001 µM (active)	> 30 µM (inactive)	> 30 µM (inactive)	> 30 µM (inactive)	> 30 µM (inactive)	> 30 µM (inactive)	> 30 µM (inactive)	> 30 µM (inactive)	> 30 µM (inactive)	> 30 µM (inactive)	0.003 µM (active)	> 30 µM (inactive)	> 30 µM (inactive)	> 30 µM (inactive)
CNS(=O)(=O)Nc1nccc(Cc2c(C)c3ccc(Oc4ncccn4)cc3oc2=O)c1F [AVUTOMETINIB]	> 30 µM (inactive)	> 30 µM (inactive)	> 30 µM (inactive)	> 30 µM (inactive)	> 30 µM (inactive)	> 30 µM (inactive)	> 30 µM (inactive)	> 30 µM (inactive)	> 30 µM (inactive)	> 30 µM (inactive)	> 30 µM (inactive)	> 30 µM (inactive)	> 30 µM (inactive)	> 30 µM (inactive)
C[C@@H](Nc1cc(F)cc(F)c1)c1cc(C(=O)N(C)C)cc2c(=O)cc(N3CCOCC3)oc12 [AZD-8186]	> 30 µM (inactive)	> 30 µM (inactive)	> 30 µM (inactive)	> 30 µM (inactive)	> 30 µM (inactive)	> 30 µM (inactive)	> 30 µM (inactive)	> 30 µM (inactive)	> 30 µM (inactive)	> 30 µM (inactive)	> 30 µM (inactive)	> 30 µM (inactive)	> 30 µM (inactive)	> 30 µM (inactive)
